Active and inactive are the calls of the source. No cut-off for these calls is given here.
Key:
[1] = system: CCRF-CEM; assay: Cytotoxicity against human vinblastine-resistant CCRF-CEM cells after 72 hrs by XTT assay; assay type: functional, cell-based
[2] = system: CCRF-CEM; assay: Cytotoxicity against human CCRF-CEM cells after 72 hrs by XTT assay; assay type: functional, cell-based; conditions: read-out: IC50
[3] = system: CCRF-CEM; assay: Cytotoxicity against human taxol-resistant CCRF-CEM cells after 72 hrs by XTT assay; assay type: functional, cell-based
[4] = system: MX1; assay: Cytotoxicity against human MX1 cells after 72 hrs by SRB assay; assay type: functional, cell-based; conditions: MX1, 72 h
[5] = system: HCT-116; assay: Cytotoxicity against human HCT116 cells after 72 hrs by SRB assay; assay type: functional, cell-based; conditions: HCT-116, 72 h
[6] = Cytotoxicity against human H1299 cells after 72 hrs by WST-1 assay; assay type: functional, cell-based; conditions: NCI-H1299, 72 h
[7] = Cytotoxicity against human OECM1 cells after 72 hrs by WST-1 assay; assay type: functional, cell-based; conditions: OECM1, 72 h
[8] = system: PC-3; assay: Cytotoxicity against human PC3 cells after 72 hrs by WST-1 assay; assay type: functional, cell-based; conditions: PC-3, 72 h
[9] = Cytotoxicity against human U87 cells after 72 hrs by WST-1 assay; assay type: functional, cell-based, U-87MG ATCC; conditions: U-87 MG
[10] = Toxicity in athymic nu/nu mouse assessed as maximum tolerated dose; assay type: organism-based; conditions: in vivo, read-out: Activity
[11] = system: MX1; assay: Antitumor activity in human MX1 cells xenografted athymic nu/nu mouse assessed as complete remission of tumor at 50 mg/kg, iv administered daily once for 3 days; assay type: functional, organism-based; set-up: dose 50 mg/kg
[12] = system: MX1; assay: Antitumor activity in human MX1 cells xenografted athymic nu/nu mouse assessed as complete remission of tumor at 5 mg/kg, iv administered daily once for 3 days; assay type: functional, organism-based; set-up: dose 5 mg/kg
[13] = system: MX1; assay: Antitumor activity in human MX1 cells xenografted athymic nu/nu mouse assessed as complete remission of tumor at 18 mg/kg, iv administered daily twice for 2 days; assay type: functional, organism-based; set-up: dose 18 mg/kg
[14] = system: MX1; assay: Antitumor activity in human MX1 cells xenografted athymic nu/nu mouse assessed as complete remission of tumor at 15 mg/kg, iv administered daily twice for 4 days; assay type: functional, organism-based; set-up: dose 15 mg/kg
[15] = system: MX1; assay: Antitumor activity in human MX1 cells xenografted athymic nu/nu mouse assessed as tumor re-growth at 18 mg/kg, iv administered daily twice for 2 days measured after 40 days of tumor implantation; assay type: functional, organism-based; set-up: dose 18 mg/kg
[16] = system: SK-OV-3; assay: Antitumor activity in human SKOV3 cells xenografted athymic nu/nu mouse assessed as tumor suppression at 20 mg/kg, iv administered daily once for 4 days measured after 22 days relative to control; assay type: functional
[17] = system: Nucleic Acid; assay: Induction of pEGFP-N1 plasmid DNA interstrand cross-linking at 1 uM after 2 hrs by alkaline agarose gel shift assay; assay type: nucleic-acid assay
[18] = system: Nucleic Acid; assay: Induction of pEGFP-N1 plasmid DNA interstrand cross-linking at 10 uM after 2 hrs by alkaline agarose gel shift assay; assay type: nucleic-acid assay
[19] = system: Nucleic Acid; assay: Induction of pEGFP-N1 plasmid DNA interstrand cross-linking at 20 uM after 2 hrs by alkaline agarose gel shift assay; assay type: nucleic-acid assay
[20] = system: CCRF-CEM; assay: Cross-resistance, IC50 for human vinblastine-resistant CCRF-CEM cells to IC50 for human CCRF-CEM cells; assay type: functional
[21] = system: CCRF-CEM; assay: Cross-resistance, IC50 for human taxol-resistant CCRF-CEM cells to IC50 for human CCRF-CEM cells; assay type: functional
[22] = system: MX1; assay: Antitumor activity in human MX1 cells xenografted athymic nu/nu mouse assessed as complete remission of tumor at 50 mg/kg, iv administered daily once for 3 days measured after 24 days of tumor implantation; assay type: functional, organism-based; set-up: dose 50 mg/kg
[23] = system: MX1; assay: Antitumor activity in human MX1 cells xenografted athymic nu/nu mouse assessed as tumor re-growth at 50 mg/kg, iv administered daily once for 3 days measured after 24 days of tumor implantation; assay type: functional, organism-based; set-up: dose 50 mg/kg
[24] = system: PC-3; assay: Antitumor activity in human PC3 cells xenografted athymic nu/nu mouse assessed as complete tumor suppression at 50 mg/kg, iv administered daily once for 4 days measured after day 14 to day 32; assay type: functional, organism-based; set-up: dose 50 mg/kg
[25] = system: Mus musculus; assay: Toxicity in human PC3 cells xenografted athymic nu/nu mouse assessed as weight loss at 50 mg/kg, iv administered daily once for 4 days measured after day 14 to day 32 relative to control; assay type: organism-based, PC-3; set-up: dose 50 mg/kg, route intravenous; conditions: in vivo, 96 h
[26] = system: SK-OV-3; assay: Antitumor activity in human SKOV3 cells xenografted athymic nu/nu mouse assessed as tumor suppression at 50 mg/kg, iv administered daily once for 3 days measured after 22 days relative to control; assay type: functional
[27] = system: Nucleic Acid; assay: Induction of DNA interstrand cross-linking in human H1299 cells at 100 uM under aerobic condition for 1 hr followed by irradiated with 20 Gy of X-ray by modified comet assay relative to irradiated untreated control; assay type: cell-based
[28] = Cell cycle arrest in human H1299 cells assessed as accumulation at subG1 phase at 10 uM after 24 hrs by flow cytometry relative to control; assay type: functional, cell-based; conditions: NCI-H1299
[29] = Cell cycle arrest in human H1299 cells assessed as accumulation at G0/G1 phase at 10 uM after 24 hrs by flow cytometry relative to control; assay type: functional, cell-based; conditions: NCI-H1299
[30] = Cell cycle arrest in human H1299 cells assessed as accumulation at S phase at 10 uM after 24 hrs by flow cytometry relative to control; assay type: functional, cell-based; conditions: NCI-H1299
[31] = Cell cycle arrest in human H1299 cells assessed as accumulation at G2/M phase at 10 uM after 24 hrs by flow cytometry relative to control; assay type: functional, cell-based; conditions: NCI-H1299
[32] = Cell cycle arrest in human H1299 cells assessed as accumulation at subG1 phase at 10 uM after 48 hrs by flow cytometry relative to control; assay type: functional, cell-based; conditions: NCI-H1299
[33] = Cell cycle arrest in human H1299 cells assessed as accumulation at G0/G1 phase at 10 uM after 48 hrs by flow cytometry relative to control; assay type: functional, cell-based; conditions: NCI-H1299
[34] = Cell cycle arrest in human H1299 cells assessed as accumulation at S phase at 10 uM after 48 hrs by flow cytometry relative to control; assay type: functional, cell-based; conditions: NCI-H1299
[35] = Cell cycle arrest in human H1299 cells assessed as accumulation at G2/M phase at 10 uM after 48 hrs by flow cytometry relative to control; assay type: functional, cell-based; conditions: NCI-H1299
[36] = Cell cycle arrest in human H1299 cells assessed as accumulation at subG1 phase at 10 uM after 72 hrs by flow cytometry relative to control; assay type: functional, cell-based; conditions: NCI-H1299
[37] = Cell cycle arrest in human H1299 cells assessed as accumulation at G0/G1 phase at 10 uM after 72 hrs by flow cytometry relative to control; assay type: functional, cell-based; conditions: NCI-H1299
[38] = Cell cycle arrest in human H1299 cells assessed as accumulation at S phase at 10 uM after 72 hrs by flow cytometry relative to control; assay type: functional, cell-based; conditions: NCI-H1299
[39] = Cell cycle arrest in human H1299 cells assessed as accumulation at G2/M phase at 10 uM after 72 hrs by flow cytometry relative to control; assay type: functional, cell-based; conditions: NCI-H1299
[40] = system: MX1; assay: Antitumor activity in human MX1 cells xenografted athymic nu/nu mouse assessed as complete remission of tumor at 5 mg/kg, iv administered daily once for 3 days measured after 22 days of tumor implantation; assay type: functional, organism-based; set-up: dose 5 mg/kg
[41] = system: MX1; assay: Antitumor activity in human MX1 cells xenografted athymic nu/nu mouse assessed as complete remission of tumor at 15 mg/kg, iv administered daily twice for 4 days measured after 18 days of tumor implantation; assay type: functional, organism-based; set-up: dose 15 mg/kg

| SMILES | IC50 [1] [nM] | IC50 [2] [nM] | IC50 [3] [nM] | IC50 [4] [nM] | IC50 [5] [nM] | IC50 [6] [µM] | IC50 [7] [nM] | IC50 [8] [µM] | IC50 [9] [µM] | MTD [10] [mg/kg] | Activity [11] | Activity [12] | Activity [13] | Activity [14] | Activity [17] | Activity [18] | Activity [19] | Ratio IC50 [20] | Ratio IC50 [21] | Activity [27] [%] | further results |
| --- | --- | --- | --- | --- | --- | --- | --- | --- | --- | --- | --- | --- | --- | --- | --- | --- | --- | --- | --- | --- | --- |
| Cc1c(CO)c(CO)c2n1-c1ccccc1C2 | 67 | 10 | 32 | 360 | 340 | 15.2 | 860 | 19.7 | 19.3 | 18 | Active | Active | Active | Active | Active | Active | Active | – | – | – | Activity [15]: inactive; Activity [16]: 53% |
| CCc1c(CO)c(CO)c2n1-c1ccccc1C2 | 230 | 360 | 140 | 1100 | 830 | 14.1 | 1240 | 16.6 | 18.2 | 50 | Active | Active | Active | Active | Active | Active | Active | 0.64 | 0.39 | – | Activity [22]: Active; Activity [23]: inactive; Activity [24]: Active; Activity [25]: 15%; Activity [26]: 78% |
| CNC(=O)OCc1c(COC(=O)NC)c(-c2ccc(OC)cc2)n2c1Cc1cc(OC)ccc1-2 | 98 | 62 | 62 | 870 | 440 | 20.9 | 1270 | 22 | 38.3 | – | – | – | – | – | Active | Active | Active | 1.6 | 1 | 97.9 | Activity [28]: 2.64%; Activity [29]: 44.7%; Activity [30]: 51.1%; Activity [31]: 4.15%; Activity [32]: 5.86%; Activity [33]: 24.9%; Activity [34]: 25.6%; Activity [35]: 49.5%; Activity [36]: 17.2%; Activity [37]: 5.06%; Activity [38]: 9.19%; Activity [39]: 85.8% |
| COc1ccc(-c2c(CO)c(CO)c3n2-c2ccc(OC)cc2C3)cc1 | 140 | 120 | 62 | 1500 | 670 | 19 | 1540 | 23.2 | 24.4 | – | – | – | – | – | Active | Active | Active | 1.2 | 0.53 | 35.5 | Activity [28]: 1.95%; Activity [29]: 43.7%; Activity [30]: 50.5%; Activity [31]: 5.84%; Activity [32]: 3.88%; Activity [33]: 19.3%; Activity [34]: 38.9%; Activity [35]: 41.9%; Activity [36]: 15.6%; Activity [37]: 1.8%; Activity [38]: 24.6%; Activity [39]: 73.6% |
| CNC(=O)OCc1c(COC(=O)NC)c(-c2ccc(OC)cc2)n2c1Cc1ccccc1-2 | 63 | 49 | 70 | 1900 | 2600 | 42.6 | 4630 | 38.2 | 34.4 | 5 | Active | Active | Active | Active | Active | Active | Active | 1.3 | 1.4 | – | Activity [40]: Active |
| CNC(=O)OCc1c(COC(=O)NC)c(-c2ccccc2OC)n2c1Cc1ccccc1-2 | 360 | 140 | 250 | 1300 | 150 | – | – | – | – | 15 | Active | Active | Active | Active | Active | Active | Active | 2.7 | 1.8 | – | Activity [41]: Active |

Source: ChEMBL document CHEMBL1152415, “Potent antitumor bifunctional DNA alkylating agents, synthesis and biological activities of 3a-aza-cyclopenta[a]indenes” (Bioorg Med Chem, 2009)
